# Measured values from paper PMC11507523, “Development of Malate Biosensor-Containing Hydrogels and Living Cell-Based Sensors” (International Journal of Molecular Sciences, 2024).
# Biological target: T1, CitT (Escherichia coli, UniProt P0AE74)
# T1 construct: CitT co-expressed with Malon in E. coli BL21 cells
# T1 sequence (P0AE74 1-487): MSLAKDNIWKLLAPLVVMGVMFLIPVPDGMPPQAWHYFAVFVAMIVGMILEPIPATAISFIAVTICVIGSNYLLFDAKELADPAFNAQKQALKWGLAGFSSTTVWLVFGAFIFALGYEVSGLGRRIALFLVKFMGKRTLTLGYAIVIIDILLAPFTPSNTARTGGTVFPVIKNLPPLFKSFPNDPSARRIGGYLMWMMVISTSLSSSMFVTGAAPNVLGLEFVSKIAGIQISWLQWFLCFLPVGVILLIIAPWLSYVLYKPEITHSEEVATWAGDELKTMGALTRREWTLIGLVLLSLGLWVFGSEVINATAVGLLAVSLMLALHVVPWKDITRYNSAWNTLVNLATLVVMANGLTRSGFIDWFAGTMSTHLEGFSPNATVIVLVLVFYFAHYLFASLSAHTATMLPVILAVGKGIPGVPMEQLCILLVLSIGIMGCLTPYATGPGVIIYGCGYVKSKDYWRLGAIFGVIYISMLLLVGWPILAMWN
# Assay: CitT-dependent malate uptake in E. coli, Malon fluorescence by flow cytometry
# Format: cell-based
compound,measurement,value
O=C(O)C[C@H](O)C(=O)O [malate],"CitT-dependent malate uptake in E. coli, Malon fluorescence by flow cytometry","Without the CitT transporter, little to no change in fluorescence was observed upon addition of malate"
